Values quoted from earlier work as cited in US20230355701A1, “CO[…] COMPOUNDS” (CAAMTECH, INC., priority 2019, published 2023).
Read-outs that look alike come from different tables or passages of the source.

What was measured:
hMOR = hMOR (Homo sapiens, UniProt P35372); conditions: for functional behaviour at hMOR: BRET functional assay
[1] = biological target: human kappa opioid receptor (hKOR) (Homo sapiens, UniProt P41145)
[2] = biological target: T1, human delta opioid receptor (hDOR) (Homo sapiens, UniProt P41143)
[3] = biological target: T1, human delta opioid receptor (hDOR); remark: listed apart in the source
[4] = mice
[5] = rats
[6] = dogs, given intraperitoneally or orally
[7] = intracerebroventricular administration
[8] = mediated through agonist activity at hMOR
[9] = given intraperitoneally or orally

human kappa opioid receptor (hKOR), sequence (P41145 whole entry): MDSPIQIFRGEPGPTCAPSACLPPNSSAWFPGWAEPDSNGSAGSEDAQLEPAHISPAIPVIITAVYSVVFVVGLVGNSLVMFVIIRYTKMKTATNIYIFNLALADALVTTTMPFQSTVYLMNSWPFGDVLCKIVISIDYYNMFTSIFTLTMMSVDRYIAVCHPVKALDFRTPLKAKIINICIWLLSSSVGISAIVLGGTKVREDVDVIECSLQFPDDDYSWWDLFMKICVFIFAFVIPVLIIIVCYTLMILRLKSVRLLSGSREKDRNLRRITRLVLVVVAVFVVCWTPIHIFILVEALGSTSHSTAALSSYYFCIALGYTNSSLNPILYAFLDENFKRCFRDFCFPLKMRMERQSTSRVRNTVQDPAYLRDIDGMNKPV
T1 sequence (P41143 whole entry): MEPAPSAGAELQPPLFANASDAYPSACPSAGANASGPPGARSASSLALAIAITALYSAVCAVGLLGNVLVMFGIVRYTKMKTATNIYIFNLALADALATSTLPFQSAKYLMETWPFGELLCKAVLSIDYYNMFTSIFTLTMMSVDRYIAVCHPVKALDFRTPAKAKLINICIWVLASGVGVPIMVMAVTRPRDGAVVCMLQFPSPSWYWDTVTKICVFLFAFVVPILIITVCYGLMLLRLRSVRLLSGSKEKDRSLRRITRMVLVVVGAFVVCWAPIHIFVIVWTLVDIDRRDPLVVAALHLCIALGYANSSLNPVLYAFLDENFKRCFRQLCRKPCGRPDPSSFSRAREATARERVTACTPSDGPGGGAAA
hMOR, sequence (P35372 whole entry): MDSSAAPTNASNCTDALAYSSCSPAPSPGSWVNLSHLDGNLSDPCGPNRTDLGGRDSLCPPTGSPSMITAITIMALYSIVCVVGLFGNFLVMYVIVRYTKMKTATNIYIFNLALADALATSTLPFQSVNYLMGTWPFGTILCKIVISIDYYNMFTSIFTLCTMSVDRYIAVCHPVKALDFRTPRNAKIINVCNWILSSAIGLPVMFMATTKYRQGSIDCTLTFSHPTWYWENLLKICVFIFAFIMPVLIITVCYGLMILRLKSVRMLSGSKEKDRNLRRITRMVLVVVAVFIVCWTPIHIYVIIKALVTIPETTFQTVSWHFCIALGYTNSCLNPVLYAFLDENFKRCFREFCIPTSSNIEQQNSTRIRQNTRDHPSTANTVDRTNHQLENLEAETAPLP

SMILES | antagonist activity at hMOR (hMOR; hMOR) | functional behaviour at hMOR (hMOR) | IC50 [1] | functional behaviour at hKOR [1] | functional behaviour at hDOR [2] | binding at hDOR [3] | other results
CCC1CN2CCc3c([nH]c4cccc(OC)c34)[C@@H]2C[C@@H]1/C(=C\OC)C(=O)OC (stereo partly drawn) [speciogynine] | competitive antagonist activity | – | – | – | – | – | –
CC[C@@H]1CN2CCc3c([nH]c4cccc(OC)c34)[C@@H]2C[C@@H]1/C(=C\OC)C(=O)OC [Mitragynine] | – | partial agonists | micromolar range | competitive antagonists | weak antagonist activity | negligible | analgesic activity ([4]; administered subcutaneously): inactive; analgesic potency [4, 9]: equivalent to codeine; analgesic activity ([5]; administered subcutaneously): inactive; analgesic potency [5, 9]: equivalent to codeine; analgesic potency [6]: equivalent to codeine; analgesic activity [7]: active analgesic
CC[C@@H]1CN2CC[C@@]3(O)C(=Nc4cccc(OC)c43)[C@@H]2C[C@@H]1/C(=C\OC)C(=O)OC [7-OH, 7-hydroxymitragynine] | – | partial agonists | micromolar range | competitive antagonists | weak antagonist activity | observed | analgesic effects [8]: exhibits analgesic effects
C=C[C@H]1CN2CCc3c([nH]c4cccc(OC)c34)[C@@H]2C[C@@H]1/C(=C\OC)C(=O)OC [paynantheine] | competitive antagonist activity | – | – | – | – | – | IC50 (hMOR; hMOR): micromolar range
CC[C@@H]1CN2CCc3c([nH]c4cccc(OC)c34)[C@H]2C[C@@H]1/C(=C\OC)C(=O)OC [speciociliatine] | competitive antagonist activity | – | – | – | – | – | –
